Test results: patent US5545755A, “Therapeutically useful 2-aminotetralin derivatives” (priority 1995, dated 1996)
Structures can show the parent of a compound that is named as a salt. Where two headings read alike, the source gives them in different places.

How the values were obtained:
[1] = target: T1, 5-hydroxytryptamine (5-HT1A) receptor (Bos taurus, UniProt F6Q2H9); assay: Inhibition of 8-OH-DPAT binding in a bovine brain homogenate (5-HT1A binding)
T1 construct: bovine brain homogenate; from tissue; host or cells: bovine brain homogenate
T1 sequence (F6Q2H9 1-422): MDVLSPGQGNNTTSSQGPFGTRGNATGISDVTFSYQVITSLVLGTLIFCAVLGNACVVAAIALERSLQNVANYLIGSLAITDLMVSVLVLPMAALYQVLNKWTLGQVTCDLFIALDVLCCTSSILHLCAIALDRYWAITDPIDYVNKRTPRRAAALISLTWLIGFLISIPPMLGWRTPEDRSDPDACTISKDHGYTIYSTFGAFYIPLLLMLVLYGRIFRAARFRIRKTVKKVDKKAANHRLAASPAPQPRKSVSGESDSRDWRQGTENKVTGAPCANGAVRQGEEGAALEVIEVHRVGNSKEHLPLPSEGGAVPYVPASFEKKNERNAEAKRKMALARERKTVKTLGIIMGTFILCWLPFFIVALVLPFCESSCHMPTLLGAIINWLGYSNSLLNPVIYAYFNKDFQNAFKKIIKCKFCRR
Source text: Binding: Inhibition of 8-OH-DPAT binding in a bovine brain homogenate. Potency is given as nM dose required to inhibit 50% of DPAT binding (IC50). This test measures ability to bind to 5-hydroxytryptamine (5-HT1A) receptor.

[2] = target: D2 receptor (Homo sapiens, UniProt P14416); assay: Dopamine D2 receptor in vitro binding
Source text: The compounds of this invention where R1 is in the 8 position in the aromatic ring are very selective 5-HT1A receptor agonists having little or no dopaminergic activity. […] Both these features are beneficial to effective clinical treatment.

[3] = Hypothermia in mice after subcutaneous injection; assay type: in vivo; details: Mus musculus, sc, dose depressing temperature by 2° C. in two of four mice
Experimental: Hypothermia: Starting with a dose of 30 mg/kg, four mice are injected subcutaneously with test compound. Twenty minutes later, the number of animals whose body temperature has decreased by 2° C. or more are counted. […] The time for last statistically significant drug affect on mean body temperature is indicated in minutes. […] Potency is given as mg/kg ED50 (dose required to depress temperature in two of four mice) as measured by Spearman-Karber statistics.

[4] = tested on: sympathetic nerve discharge; assay: Sympathetic Nerve Discharge (SND) in chloralose anesthetized cats; assay type: in vivo; details: Felis catus, iv, dose causing 50% depression in SND
Experimental: Sympathetic Nerve Discharge (SND): The i.v. mg/kg dose causing a 50% depression in SND in chloralose anesthetized cats and the maximum inhibition of sympathetic activity observed in the dose range tested (0.001-1.0 mg/kg i.v.).

[5] = Blood pressure in chloralose anesthetized cats (BP SND/MAX); assay type: in vivo; details: i.v., blood pressure in percent control at the dose causing 50% depression in SND
Experimental: BP SND/MAX: The blood pressure of the chloralose anesthetized cats in percent control at the dose causing 50% depression in SND and the maximum reduction in blood pressure as percent of the control blood pressure in the same animals observed in the dose range tested (0.001-1.0 mg/kg i.v.).

[6] = tested on: dopamine receptors; details: cited from earlier work
[7] = some patients; cited from earlier work
[8] = J. Pharm. Sci., 67, 880-82 (1978); cited from earlier work
[9] = Chem. Ab., 79:146294b; cited from earlier work

Chain of D2 receptor (P14416 whole entry): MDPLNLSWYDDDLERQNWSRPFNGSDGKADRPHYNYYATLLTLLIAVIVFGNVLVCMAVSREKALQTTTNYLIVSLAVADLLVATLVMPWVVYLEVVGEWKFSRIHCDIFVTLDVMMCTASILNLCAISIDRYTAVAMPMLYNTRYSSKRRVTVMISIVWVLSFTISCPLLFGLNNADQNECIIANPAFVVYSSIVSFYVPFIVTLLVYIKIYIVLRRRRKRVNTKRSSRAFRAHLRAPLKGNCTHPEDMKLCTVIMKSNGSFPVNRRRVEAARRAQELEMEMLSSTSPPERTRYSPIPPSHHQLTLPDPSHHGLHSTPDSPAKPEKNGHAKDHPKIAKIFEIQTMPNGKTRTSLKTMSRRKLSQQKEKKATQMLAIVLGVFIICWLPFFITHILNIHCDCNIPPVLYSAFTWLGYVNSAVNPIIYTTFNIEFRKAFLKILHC

| SMILES | IC50 ([1]; read-out: 5-HT1A Binding IC50) [nM] | ED50 [3] [mg/kg] | ED50 [4] [mg/kg] | % BD (at SND ED50) [5] [%] | also measured |
| --- | --- | --- | --- | --- | --- |
| NC(=O)c1cccc2c1CC(N1CCCCCC1)CC2 (stereo not shown) [Compound 58-1, (1-Hexahydroazepinyl)-5,6,7,8-tetrahydronaphthalene-1-carboxamide] | 26 | 2.3 | – | – | IC50 [2]: > 1000 nM |
| NC(=O)c1cccc2c1CC(N1CCCC1)CC2 (single isomer, unassigned; (+)) [Compound 60-1, (+)-1,2,3,4-tetrahydro-2-pyrrolidino-naphthalene-8-yl-carboxamide] | 10.9 | – | – | – | – |
| Brc1cccc2c1CC(N1CCCC1)CC2 (single isomer, unassigned; (+)) [Compound 59-1, (+)-1,2,3,4-tetrahydro-2-pyrrolidino-8-bromo-tetralin] | 4 | – | – | – | – |
| C=CCN[C@@H]1CCc2cccc(OC)c2[C@@H]1CC=C (relative stereo) [Example 26 Compound 1, Cis-(+-)-1,2,3,4-Tetrahydro-8-methoxy-N,1-di-(2-pro-penyl)-2-naphthalenamine hydrochloride] | – | 2.31 | 0.16 | 70.0 | – |
| CC1(C)CC(=O)N(CCCCN2CCN(c3ncccn3)CC2)C(=O)C1 [Gepirone] | – | – | – | – | dopamine receptor antagonism [6]: has dopamine antagonist properties; effect on depressive endpoints [7]: ameliorative effects on some depressive endpoints in some patients |
| c1ccc2c(c1)CCC(N1CCCCCC1)C2 (stereo not shown) [Compound 57-3, Hexahydro-1-(1,2,3,4-tetrahydro-2-naphthalenyl)-1H-Azepine] | 103 | 2.3 | 0.62 | 75.0 | – |
| CCCN(CC1CC1)C1CCc2cccc(C(N)=O)c2C1 (stereo not shown) [Example 5 Compound 2, 1,2,3,4-Tetrahydro-2-N-cyclopropylmethyl-2-N-propyl-8-yl-carboxamide] | 13 | 0.31 | 0.33 | 40.0 | – |
| C=CCNC1CCc2cccc(OC)c2C1.Cl (stereo not shown) [Example 15 Compound 27, 1,2,3,4-Tetrahydro-8-methoxy-N-2-propenyl-2-naphthalenamine hydrochloride] | – | 0.31 | 0.1 | 62.0 | IC50 [1]: 8.9 nM |
| COc1cccc2c1CCC(NC1CC1)C2C (stereo not shown) [1-methyl-2-(cyclopropylamino)-5-methoxytetralin] | – | – | – | – | local anesthetic activity [8]: possess local anesthetic activity |
| C=CCN(C)C1CCc2cccc(OC)c2C1.Cl (stereo not shown) [Example 15 Compound 12, 1,2,3,4-Tetrahydro-8-methoxy-N-methyl-N-2-propenyl-2-Naphthalenamine hydrochloride] | – | 1.2 | 0.012 | 79.0 | IC50 [1]: 7.9 nM |
| CN(C)C1CCc2ccc(O)cc2C1(C)C (stereo not shown) [1,1-Dimethyl-2-(N,N-dimethylamino)-7-hydroxytetralin] | – | – | – | – | analgesic and intestinal movement accelerating actions [9]: analgesic and intestinal movement accelerating actions |
| C=CCNC1CCc2cccc(O)c2C1.Cl (stereo not shown) [Example 19 Compound 2, 5,6,7,8-tetrahydro-7-(2-propenyl)amino-1-naphthalenol hydrochloride] | – | 0.73 | 0.01 | 78.0 | IC50 [1]: 3.5 nM |
| C=CCN(CC=C)C1CCc2ccccc2C1.Cl (racemic) [Example 21 Compound 6, (+-)-1,2,3,4-Tetrahydro-N,N-di-2-propenyl-2-naphthalenamine hydrochloride] | – | 0.97 | 0.6 | 52.0 | IC50 [1]: 50.7 nM |
| O=C1CC2(CCCC2)CC(=O)N1CCCCN1CCN(c2ncccn2)CC1 [Buspirone] | – | – | – | – | dopamine receptor antagonism [6]: antagonizes dopamine receptors at the same dose it stimulates 5-HT1A receptors |
